# Reference: US20110282056A1, “PROTEIN KINASE INHIBITORS AND USE THEREOF” (priority 2008, published 2011)
# Tests used:
# Type in all cases: biochemical
# Flt3 = biological target: T1, Flt3 (Homo sapiens, UniProt P36888); test: Flt3 enzyme activity assay (Caliper LC3000 mobility shift); settings: 350 uM ATP (Km), 3 nM Flt3, 90 minutes at RT
# T1 construct: purchased BPS Bioscience; San Diego, Calif; 40225
# T1 sequence (P36888 27-993): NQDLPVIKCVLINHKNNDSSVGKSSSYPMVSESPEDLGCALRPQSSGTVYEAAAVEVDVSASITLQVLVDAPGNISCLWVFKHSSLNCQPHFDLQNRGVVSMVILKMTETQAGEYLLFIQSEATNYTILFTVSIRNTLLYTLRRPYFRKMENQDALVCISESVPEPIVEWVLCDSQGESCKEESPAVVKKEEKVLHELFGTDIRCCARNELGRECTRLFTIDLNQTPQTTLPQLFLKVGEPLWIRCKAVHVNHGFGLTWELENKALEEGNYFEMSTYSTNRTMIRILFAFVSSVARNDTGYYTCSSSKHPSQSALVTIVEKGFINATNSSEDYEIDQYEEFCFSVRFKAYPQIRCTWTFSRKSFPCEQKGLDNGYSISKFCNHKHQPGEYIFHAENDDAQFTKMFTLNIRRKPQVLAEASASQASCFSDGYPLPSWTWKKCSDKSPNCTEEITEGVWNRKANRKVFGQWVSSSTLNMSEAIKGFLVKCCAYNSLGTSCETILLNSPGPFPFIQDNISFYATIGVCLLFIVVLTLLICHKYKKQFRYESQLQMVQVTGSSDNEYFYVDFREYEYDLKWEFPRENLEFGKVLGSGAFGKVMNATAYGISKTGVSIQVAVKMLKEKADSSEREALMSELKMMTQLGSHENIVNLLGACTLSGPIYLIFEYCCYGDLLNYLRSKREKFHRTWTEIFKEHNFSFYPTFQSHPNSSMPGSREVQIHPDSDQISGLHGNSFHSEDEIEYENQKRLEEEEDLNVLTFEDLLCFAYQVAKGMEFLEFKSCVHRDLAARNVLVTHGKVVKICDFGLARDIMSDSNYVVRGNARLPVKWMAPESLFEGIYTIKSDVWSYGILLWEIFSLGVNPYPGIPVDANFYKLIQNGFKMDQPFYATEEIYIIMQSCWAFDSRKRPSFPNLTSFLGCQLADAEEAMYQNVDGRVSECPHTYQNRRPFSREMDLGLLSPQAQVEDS
# Method: (§1) Enzyme activity for VEGFR3, VEGFR2 and Flt3 were measured on the Caliper Life Sciences LC3000 (Hopkinton, Mass.). The system utilizes the principle of electroosmotic flow to separate and quantify the amount of phosphorylated-Fluorescein-labelled-peptide (product) from unphosphorylated-Fluorescein-labelled peptide (substrate). The amount of product and substrate are determined by measuring the peak heights from the electropherogram. The enzyme activity is then quantified by dividing the amount of product by the sum of the product and substrate. The inhibitory activity of a sample is measured by comparing the enzyme activity in the presence of sample versus the enzyme activity in the presence of dimethylsufoxide (DMSO). Specific assay conditions for each enzyme are listed below:
# (§2) Flt3 assay: The peptide substrate at 1 uM (FITC-AHA-UEAIYAAPFAKKK-CONH2; synthesized at Tufts University, Boston, Mass.) was incubated with 350 uM of ATP, corresponding to the Michaelis-Menten (Km) constant of the enzyme/substrate reaction, and 3 nM of Flt3 (BPS Bioscience; San Diego, Calif.; Cat. No. 40225) for 90 minutes at RT. After 90 minutes, the reaction was stopped by the addition of 10 mM EDTA. The substrate and product were then separated on the LC3000.
# VEGFR2 = biological target: T2, VEGFR2 (Homo sapiens, UniProt P35968); test: VEGFR2 enzyme activity assay (Caliper LC3000 mobility shift); settings: 160 uM ATP (Km), 1 nM VEGFR2, 90 minutes at RT
# T2 construct: purchased BPS Bioscience; San Diego, Calif; 40301
# Method: as §1
# as §2, with “VEGFR2 assay:” for “Flt3 assay:”, “uM (5-FL-EEPLYWSFPAKKK-CONH2;” for “uM (FITC-AHA-UEAIYAAPFAKKK-CONH2;”, “with 160” for “with 350”, “and 1” for “and 3”, “of VEGFR2” for “of Flt3”, “No. 40301)” for “No. 40225)”
# VEGFR3 = biological target: T3, VEGFR3 (Homo sapiens, UniProt P35916); test: VEGFR3 enzyme activity assay (Caliper LC3000 mobility shift); settings: 400 uM ATP (Km), 0.4 nM VEGFR3, 90 minutes at RT
# T3 construct: purchased Millpore Corp. (Millipore) 14-681
# Method: as §1
# VEGFR3 assay: The peptide substrate at 1 uM (FITC-KKKKEEIYFFF-CONH2; synthesized at Tufts University, Boston, Mass.) was incubated with 400 uM of ATP, corresponding to the Michaelis-Menten (Km) constant of the enzyme/substrate reaction, and 0.4 nM of VEGFR3 (Millpore Corp., Cat. No. 14-681) for 90 minutes at RT. After 90 minutes, the reaction was stopped by the addition of 10 mM EDTA. The substrate and product were then separated on the LC3000.
# T3 sequence (P35916 25-1363): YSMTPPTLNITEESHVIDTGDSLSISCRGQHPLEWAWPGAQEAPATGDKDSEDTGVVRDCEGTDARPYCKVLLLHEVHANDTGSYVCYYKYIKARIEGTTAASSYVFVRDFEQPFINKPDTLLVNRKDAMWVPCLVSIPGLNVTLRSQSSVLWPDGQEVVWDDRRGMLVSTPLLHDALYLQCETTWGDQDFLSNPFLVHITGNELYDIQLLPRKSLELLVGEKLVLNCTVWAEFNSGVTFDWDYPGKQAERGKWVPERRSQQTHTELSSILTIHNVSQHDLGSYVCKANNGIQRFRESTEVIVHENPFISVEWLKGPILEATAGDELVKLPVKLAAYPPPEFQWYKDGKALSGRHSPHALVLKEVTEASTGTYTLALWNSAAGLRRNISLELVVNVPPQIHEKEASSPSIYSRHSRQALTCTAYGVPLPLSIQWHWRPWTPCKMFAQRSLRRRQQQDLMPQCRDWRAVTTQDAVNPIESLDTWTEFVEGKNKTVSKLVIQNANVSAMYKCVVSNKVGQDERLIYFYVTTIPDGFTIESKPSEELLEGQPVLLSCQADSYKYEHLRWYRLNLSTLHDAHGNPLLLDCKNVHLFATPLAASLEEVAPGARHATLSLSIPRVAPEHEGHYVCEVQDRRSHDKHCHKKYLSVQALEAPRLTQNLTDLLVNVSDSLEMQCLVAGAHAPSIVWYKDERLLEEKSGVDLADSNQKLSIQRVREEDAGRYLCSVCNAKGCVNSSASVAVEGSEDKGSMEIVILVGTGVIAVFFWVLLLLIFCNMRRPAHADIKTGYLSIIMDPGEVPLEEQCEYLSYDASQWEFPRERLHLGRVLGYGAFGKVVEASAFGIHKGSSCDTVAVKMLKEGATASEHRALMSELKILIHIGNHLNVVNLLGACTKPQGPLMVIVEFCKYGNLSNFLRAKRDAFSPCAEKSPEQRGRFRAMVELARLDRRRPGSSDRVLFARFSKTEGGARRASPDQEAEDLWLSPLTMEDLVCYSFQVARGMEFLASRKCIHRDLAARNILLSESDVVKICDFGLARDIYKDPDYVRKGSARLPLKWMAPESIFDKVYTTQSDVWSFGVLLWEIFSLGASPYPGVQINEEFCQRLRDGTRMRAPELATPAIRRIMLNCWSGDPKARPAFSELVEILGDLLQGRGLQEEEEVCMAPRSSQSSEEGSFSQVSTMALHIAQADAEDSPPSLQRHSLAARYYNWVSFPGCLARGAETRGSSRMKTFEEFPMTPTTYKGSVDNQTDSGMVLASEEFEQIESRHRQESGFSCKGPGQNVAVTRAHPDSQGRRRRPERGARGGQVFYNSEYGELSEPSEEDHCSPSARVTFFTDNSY
# T2 sequence (P35968 20-1356): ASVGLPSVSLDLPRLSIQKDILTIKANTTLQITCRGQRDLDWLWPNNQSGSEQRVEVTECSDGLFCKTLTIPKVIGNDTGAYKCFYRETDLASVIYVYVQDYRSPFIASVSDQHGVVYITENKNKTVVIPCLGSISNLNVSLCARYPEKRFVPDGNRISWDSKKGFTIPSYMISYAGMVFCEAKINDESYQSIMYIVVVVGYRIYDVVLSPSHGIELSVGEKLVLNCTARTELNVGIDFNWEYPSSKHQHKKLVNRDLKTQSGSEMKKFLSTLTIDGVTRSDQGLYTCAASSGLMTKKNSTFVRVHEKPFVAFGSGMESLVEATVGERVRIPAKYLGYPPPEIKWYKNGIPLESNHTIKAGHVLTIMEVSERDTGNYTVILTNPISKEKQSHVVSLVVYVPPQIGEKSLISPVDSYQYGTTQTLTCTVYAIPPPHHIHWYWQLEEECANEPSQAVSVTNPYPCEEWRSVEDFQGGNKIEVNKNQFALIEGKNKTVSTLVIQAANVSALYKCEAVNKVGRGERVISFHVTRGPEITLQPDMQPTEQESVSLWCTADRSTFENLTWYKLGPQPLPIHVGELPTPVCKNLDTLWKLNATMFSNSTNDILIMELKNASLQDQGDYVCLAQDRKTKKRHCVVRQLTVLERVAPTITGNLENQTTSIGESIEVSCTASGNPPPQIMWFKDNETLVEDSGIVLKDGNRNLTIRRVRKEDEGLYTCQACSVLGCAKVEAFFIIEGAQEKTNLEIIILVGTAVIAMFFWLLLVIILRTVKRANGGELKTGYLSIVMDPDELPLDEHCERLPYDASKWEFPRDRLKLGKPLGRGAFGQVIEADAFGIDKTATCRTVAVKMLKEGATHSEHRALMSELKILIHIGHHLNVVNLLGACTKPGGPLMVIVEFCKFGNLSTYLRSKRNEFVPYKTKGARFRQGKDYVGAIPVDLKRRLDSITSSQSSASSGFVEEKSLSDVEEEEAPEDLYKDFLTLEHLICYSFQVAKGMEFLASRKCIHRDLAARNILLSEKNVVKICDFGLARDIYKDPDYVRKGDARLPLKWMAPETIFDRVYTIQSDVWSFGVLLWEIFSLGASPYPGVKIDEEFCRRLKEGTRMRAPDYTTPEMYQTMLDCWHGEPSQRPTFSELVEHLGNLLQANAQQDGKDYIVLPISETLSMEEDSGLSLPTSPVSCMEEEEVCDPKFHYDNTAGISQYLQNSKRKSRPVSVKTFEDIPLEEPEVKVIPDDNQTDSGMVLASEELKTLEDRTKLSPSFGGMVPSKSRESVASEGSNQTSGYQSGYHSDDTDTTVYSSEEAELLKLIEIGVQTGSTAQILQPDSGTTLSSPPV
SMILES,IC50 (Flt3) [µM],IC50 (VEGFR2) [µM],IC50 (VEGFR3) [µM]
O=C(NCc1ccccc1C#Cc1ccnc2[nH]ccc12)Nc1ccccc1 [compound 113],> 1,> 1,> 1
C(#Cc1ccnc2[nH]ccc12)c1ccc(-c2cccs2)cc1 [compound 126],> 1,> 1,> 1
C(#Cc1ccnc2[nH]ccc12)c1cccc(-c2cc[nH]n2)c1 [compound 53],> 1,> 1,0.1 to 1
COC(=O)c1ccccc1C#Cc1ccnc2[nH]ccc12 [compound 43],0.1 to 1,> 1,0.1 to 1
